Biological target: Beta-3 Adrenergic Receptor (Homo sapiens (Human), UniProt P13945)
Experiment: Homogeneous Time-Resolved Fluorescence (HTRF) cAMP antagonist assay, IC50 determination
Assay type: cell-based
Conditions: CHO-K1 cells stably expressing recombinant receptor, isoproterenol at EC90
Outline: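 In this functional readout, recombinant CHO-K1 cells received compound, then isoproterenol at its EC90. After 1 h at room temperature, cAMP levels were determined by HTRF using an on-plate standard curve, and IC50 values were fitted.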

Sequence of Beta-3 Adrenergic Receptor (P13945 whole entry, species assumed): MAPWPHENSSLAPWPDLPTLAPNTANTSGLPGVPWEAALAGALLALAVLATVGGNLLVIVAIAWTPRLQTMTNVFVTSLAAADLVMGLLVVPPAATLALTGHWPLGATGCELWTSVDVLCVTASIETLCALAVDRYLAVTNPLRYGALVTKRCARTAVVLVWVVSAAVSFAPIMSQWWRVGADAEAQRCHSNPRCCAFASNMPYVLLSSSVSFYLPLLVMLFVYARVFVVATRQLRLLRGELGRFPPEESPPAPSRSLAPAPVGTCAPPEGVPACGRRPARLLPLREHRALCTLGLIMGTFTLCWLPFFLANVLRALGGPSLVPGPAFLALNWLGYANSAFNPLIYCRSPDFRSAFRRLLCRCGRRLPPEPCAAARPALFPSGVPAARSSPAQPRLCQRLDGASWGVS

IC50 [µM]	SMILES
0.0439	CCn1cc(S(=O)(=O)N2CCC3(CC2)C[C@@H](NC[C@H](O)COc2cccc(S(=O)(=O)NC)c2)CO3)c(=O)c2cc(C)ccc21 [Compound 535, 3-((S)-3-((R)-8-(1-ethyl-6-methyl-4-oxo-1,4-dihydroquinolin-3-ylsulfonyl)-1-oxa-8-azaspiro[4.5]decan-3-ylamino)-2-hydroxypropoxy)-N-methylbenzenesulfonamide]
0.166	CCn1cc(S(=O)(=O)N2CCC3(CC2)C[C@@H](NC[C@H](O)COc2cccc(S(=O)(=O)NC)c2)CO3)c(=O)c2cc(F)ccc21 [Compound 536, 3-((S)-3-((R)-8-(1-ethyl-6-fluoro-4-oxo-1,4-dihydroquinolin-3-ylsulfonyl)-1-oxa-8-azaspiro[4.5]decan-3-ylamino)-2-hydroxypropoxy)-N-methylbenzenesulfonamide]
0.101	CNS(=O)(=O)c1cccc(OC[C@@H](O)CN[C@H]2COC3(CCN(S(=O)(=O)c4ccc5nccn5c4)CC3)C2)c1 [Compound 537, 3-((S)-2-hydroxy-3-((R)-8-(imidazo[1,2-a]pyridin-6-ylsulfonyl)-1-oxa-8-azaspiro[4.5]decan-3-ylamino)propoxy)-N-methylbenzenesulfonamide]
0.0542	CNS(=O)(=O)c1cccc(OC[C@@H](O)CN[C@H]2COC3(CCN(S(=O)(=O)c4cnc5cc(C)ccc5c4O)CC3)C2)c1 [Compound 538, 3-((S)-2-hydroxy-3-((R)-8-(4-hydroxy-7-methylquinolin-3-ylsulfonyl)-1-oxa-8-azaspiro[4.5]decan-3-ylamino)propoxy)-N-methylbenzenesulfonamide]
0.026	CNS(=O)(=O)c1cccc(OC[C@@H](O)CN[C@H]2COC3(CCN(S(=O)(=O)c4cnc5cc(F)ccc5c4O)CC3)C2)c1 [Compound 539, 3-((S)-3-((R)-8-(7-fluoro-4-hydroxyquinolin-3-ylsulfonyl)-1-oxa-8-azaspiro[4.5]decan-3-ylamino)-2-hydroxypropoxy)-N-methylbenzenesulfonamide]
0.0327	CNS(=O)(=O)c1cccc(OC[C@@H](O)CN[C@H]2COC3(CCN(S(=O)(=O)c4cnc5c(F)cccc5c4O)CC3)C2)c1 [Compound 540, 3-((S)-3-((R)-8-(8-fluoro-4-hydroxyquinolin-3-ylsulfonyl)-1-oxa-8-azaspiro[4.5]decan-3-ylamino)-2-hydroxypropoxy)-N-methylbenzenesulfonamide]
0.0134	CNS(=O)(=O)c1cccc(OC[C@@H](O)CN[C@H]2COC3(CCN(S(=O)(=O)c4cnc5ccccc5c4O)CC3)C2)c1 [Compound 541, 3-((S)-2-hydroxy-3-((R)-8-(4-hydroxyquinolin-3-ylsulfonyl)-1-oxa-8-azaspiro[4.5]decan-3-ylamino)propoxy)-N-methylbenzenesulfonamide]
0.0156	Cc1ccc2c(O)c(S(=O)(=O)N3CCC4(CC3)C[C@@H](NC[C@H](O)COc3cccc(S(N)(=O)=O)c3)CO4)cnc2c1 [Compound 542, 3-((S)-2-hydroxy-3-((R)-8-(4-hydroxy-7-methylquinolin-3-ylsulfonyl)-1-oxa-8-azaspiro[4.5]decan-3-ylamino)propoxy)benzenesulfonamide]
0.0667	CCn1cc(S(=O)(=O)N2CCC3(CC2)C[C@@H](NC[C@H](O)COc2cccc(S(N)(=O)=O)c2)CO3)c(=O)c2ccc(F)cc21 [Compound 543, 3-((S)-3-((R)-8-(1-ethyl-7-fluoro-4-oxo-1,4-dihydroquinolin-3-ylsulfonyl)-1-oxa-8-azaspiro[4.5]decan-3-ylamino)-2-hydroxypropoxy)benzenesulfonamide]
0.0327	CNS(=O)(=O)c1cccc(OC[C@@H](O)CN[C@H]2COC3(CCN(S(=O)(=O)c4cn(CC(=O)O)c5ccccc5c4=O)CC3)C2)c1 [Compound 544, 2-(3-((R)-3-((S)-2-hydroxy-3-(3-(N-methylsulfamoyl)phenoxy)propylamino)-1-oxa-8-azaspiro[4.5]decan-8-ylsulfonyl)-4-oxoquinolin-1(4H)-yl)acetic acid]
0.121	CCn1cc(S(=O)(=O)N2CCC3(CC2)C[C@@H](NC[C@H](O)COc2cccc(S(=O)(=O)NC)c2)CO3)c(=O)c2cccc(C)c21 [Compound 545, 3-((S)-3-((R)-8-(1-ethyl-8-methyl-4-oxo-1,4-dihydroquinolin-3-ylsulfonyl)-1-oxa-8-azaspiro[4.5]decan-3-ylamino)-2-hydroxypropoxy)-N-methylbenzenesulfonamide]
0.053	CCn1cc(S(=O)(=O)N2CCC3(CC2)C[C@@H](NC[C@H](O)COc2cccc(S(=O)(=O)NC)c2)CO3)c(=O)c2ccc(F)cc21 [Compound 546, 3-((S)-3-((R)-8-(1-ethyl-7-fluoro-4-oxo-1,4-dihydroquinolin-3-ylsulfonyl)-1-oxa-8-azaspiro[4.5]decan-3-ylamino)-2-hydroxypropoxy)-N-methylbenzenesulfonamide]
0.179	CNS(=O)(=O)c1cccc(OC[C@@H](O)CN[C@H]2COC3(CCN(S(=O)(=O)c4cc(C)cc5c(O)ccnc45)CC3)C2)c1 [Compound 547, 3-((S)-2-hydroxy-3-((R)-8-(4-hydroxy-6-methylquinolin-8-ylsulfonyl)-1-oxa-8-azaspiro[4.5]decan-3-ylamino)propoxy)-N-methylbenzenesulfonamide]
0.0143	NS(=O)(=O)c1cccc(OC[C@@H](O)CN[C@H]2COC3(CCN(S(=O)(=O)c4cnc5ccccc5c4O)CC3)C2)c1 [Compound 548, 3-((S)-2-hydroxy-3-((R)-8-(4-hydroxyquinolin-3-ylsulfonyl)-1-oxa-8-azaspiro[4.5]decan-3-ylamino)propoxy)benzenesulfonamide]
0.14	Cn1cc(S(=O)(=O)N2CCC3(CC2)C[C@@H](NC[C@H](O)COc2cccc(S(N)(=O)=O)c2)CO3)c(=O)c2ccccc21 [Compound 549, 3-((S)-2-hydroxy-3-((R)-8-(1-methyl-4-oxo-1,4-dihydroquinolin-3-ylsulfonyl)-1-oxa-8-azaspiro[4.5]decan-3-ylamino)propoxy)benzenesulfonamide]
0.0403	CCn1cc(S(=O)(=O)N2CCC3(CC2)C[C@@H](NC[C@H](O)COc2cccc(S(N)(=O)=O)c2)CO3)c(=O)c2ccccc21 [Compound 550, 3-((S)-3-((R)-8-(1-ethyl-4-oxo-1,4-dihydroquinolin-3-ylsulfonyl)-1-oxa-8-azaspiro[4.5]decan-3-ylamino)-2-hydroxypropoxy)benzenesulfonamide]
0.0747	CCCn1cc(S(=O)(=O)N2CCC3(CC2)C[C@@H](NC[C@H](O)COc2cccc(S(N)(=O)=O)c2)CO3)c(=O)c2ccccc21 [Compound 551, 3-((S)-2-hydroxy-3-((R)-8-(4-oxo-1-propyl-1,4-dihydroquinolin-3-ylsulfonyl)-1-oxa-8-azaspiro[4.5]decan-3-ylamino)propoxy)benzenesulfonamide]
0.0178	NS(=O)(=O)c1cccc(OC[C@@H](O)CN[C@H]2COC3(CCN(S(=O)(=O)c4c[nH]c5ccc(F)cc5c4=O)CC3)C2)c1 [Compound 552, 3-((S)-3-((R)-8-(6-fluoro-4-oxo-1,4-dihydroquinolin-3-ylsulfonyl)-1-oxa-8-azaspiro[4.5]decan-3-ylamino)-2-hydroxypropoxy)benzenesulfonamide]
0.0236	Cc1cccc2c(=O)c(S(=O)(=O)N3CCC4(CC3)C[C@@H](NC[C@H](O)COc3cccc(S(N)(=O)=O)c3)CO4)c[nH]c12 [Compound 553, 3-((S)-2-hydroxy-3-((R)-8-(8-methyl-4-oxo-1,4-dihydroquinolin-3-ylsulfonyl)-1-oxa-8-azaspiro[4.5]decan-3-ylamino)propoxy)benzenesulfonamide]
0.0346	NS(=O)(=O)c1cccc(OC[C@@H](O)CN[C@H]2COC3(CCN(S(=O)(=O)c4c[nH]c5c(F)cccc5c4=O)CC3)C2)c1 [Compound 554, 3-((S)-3-((R)-8-(8-fluoro-4-oxo-1,4-dihydroquinolin-3-ylsulfonyl)-1-oxa-8-azaspiro[4.5]decan-3-ylamino)-2-hydroxypropoxy)benzenesulfonamide]
0.0213	NS(=O)(=O)c1cccc(OC[C@@H](O)CN[C@H]2COC3(CCN(S(=O)(=O)c4c[nH]c5cc(F)ccc5c4=O)CC3)C2)c1 [Compound 555, 3-((S)-3-((R)-8-(7-fluoro-4-oxo-1,4-dihydroquinolin-3-ylsulfonyl)-1-oxa-8-azaspiro[4.5]decan-3-ylamino)-2-hydroxypropoxy)benzenesulfonamide]
0.0485	NS(=O)(=O)c1cccc(OC[C@@H](O)CN[C@H]2COC3(CCN(S(=O)(=O)c4ccc5c(c4)CCCC5)CC3)C2)c1 [Compound 556, 3-((S)-2-hydroxy-3-((R)-8-(5,6,7,8-tetrahydronaphthalen-2-ylsulfonyl)-1-oxa-8-azaspiro[4.5]decan-3-ylamino)propoxy)benzenesulfonamide]
0.0839	CCn1cc(S(=O)(=O)N2CCC3(CC2)C[C@@H](NC[C@H](O)COc2cccc(S(N)(=O)=O)c2)CO3)c(=O)c2ccc(C)cc21 [Compound 557, 3-((S)-3-((R)-8-(1-ethyl-7-methyl-4-oxo-1,4-dihydroquinolin-3-ylsulfonyl)-1-oxa-8-azaspiro[4.5]decan-3-ylamino)-2-hydroxypropoxy)benzenesulfonamide]
0.0136	Cc1c[nH]c2ncc(S(=O)(=O)N3CCC4(CC3)C[C@@H](NC[C@H](O)COc3cccc(S(N)(=O)=O)c3)CO4)cc12 [Compound 558, 3-((S)-2-hydroxy-3-((R)-8-(3-methyl-1H-pyrrolo[2,3-b]pyridin-5-ylsulfonyl)-1-oxa-8-azaspiro[4.5]decan-3-ylamino)propoxy)benzenesulfonamide]
0.0347	Cc1nc2cc(S(=O)(=O)N3CCC4(CC3)C[C@@H](NC[C@H](O)COc3cccc(S(N)(=O)=O)c3)CO4)cnc2[nH]1 [Compound 559, 3-((S)-2-hydroxy-3-((R)-8-(2-methyl-3H-imidazo[4,5-b]pyridin-6-ylsulfonyl)-1-oxa-8-azaspiro[4.5]decan-3-ylamino)propoxy)benzenesulfonamide]

Reference: patent US11987588B2, “Modulators of the beta-3 adrenergic receptor useful for the treatment or prevention of heart failure and disorders related thereto” (Arena Pharmaceuticals, Inc., priority 2017, dated 2024)
